Experimental data: publication PMC9305947, “Rational Design of Phe‐BODIPY Amino Acids as Fluorogenic Building Blocks for Peptide‐Based Detection of Urinary Tract Candida Infections” (Angewandte Chemie (International Ed. in English), 2022)
Values after ≈ are worked out from the molar mass of the structure shown. *1 amine or outer side, *2 acyl side, *3 side chain or, on linkers, in order; H or OH if unused. Where a SMILES comes first, the peptide text is derived from it. Where no end group is shown, it is not given here. [ ]: non-standard residue; d: D form. X1 = COc1ccc(C2=[N+]3C(=C(c4ccc(C[C@H](N[*:1])C(=O)[*:2])cc4)c4ccc(-c5ccc(OC)cc5)n4[B-]3(F)F)C=C2)cc1

Columns and labels:
C. glabrata = format: cell-based, Candida glabrata; conditions: 48 h
Experimental: (§1) Figure 4 a) Synthetic procedure for the preparation Fmoc‐Phe(pMP‐BODIPY)‐OH (11). Inset: pictures of solutions of probe 17 (30 μM) under excitation with a 365 nm UV‐lamp in PBS (left) and in liposomes (right). b) Minimum inhibitory concentration (MIC) values of peptides 12–16 against different Candida strains (5×10^5 cells mL^−1) in 20 % Vogel's medium after 48 h incubation at 37 °C. MIC was determined by brightfield microscopy from three independent experiments. c) Chemical structure of peptide 17 and fluorogenic response (25 μM) in PBS (black) and in aqueous suspensions containing liposomes (red). λ exc: 530 nm (n=3). d) MIC values of peptide 17 against different Candida strains and bacteria (5×10^5 cells mL^−1) in 10 % liquid LB medium after 48 h incubation at 37 °C. MIC was determined by brightfield microscopy from three independent experiments (n=3). e) Normalised fluorescence of probe 17 (30 μM) when incubated in diluted urine samples under continuous light irradiation. λ exc: 530 nm. Data presented as mean±SD (n=3). TEXT PRINTED IN THE PICTURE: (a) no label printed: QY 0.08% (OFF); QY 14.9% (ON) | (b) 12: MIC (μmol L^-1) C. inconspic.: 60; MIC (μmol L^-1) C. arius: > 60; MIC (μmol L^-1) C. albicans: 15; MIC (μmol L^-1) C. rugosa: 15; MIC (μmol L^-1) C. glabrata: 30; MIC (μmol L^-1) C. krusei: 30 | (b) 13: MIC (μmol L^-1) C. inconspic.: 2; MIC (μmol L^-1) C. arius: 4; MIC (μmol L^-1) C. albicans: 4; MIC (μmol L^-1) C. rugosa: 16; MIC (μmol L^-1) C. glabrata: 8; MIC (μmol L^-1) C. krusei: 4 | (b) 14: MIC (μmol L^-1) C. inconspic.: > 60; MIC (μmol L^-1) C. arius: > 60; MIC (μmol L^-1) C. albicans: > 60; MIC (μmol L^-1) C. rugosa: > 60; MIC (μmol L^-1) C. glabrata: > 60; MIC (μmol L^-1) C. krusei: > 60 | (b) 15: MIC (μmol L^-1) C. inconspic.: 4; MIC (μmol L^-1) C. arius: > 60; MIC (μmol L^-1) C. albicans: 16; MIC (μmol L^-1) C. rugosa: > 60; MIC (μmol L^-1) C. glabrata: 16; MIC (μmol L^-1) C. krusei: 8 | (b) 16: MIC (μmol L^-1) C. inconspic.: 2; MIC (μmol L^-1) C. arius: 32; MIC (μmol L^-1) C. albicans: 4; MIC (μmol L^-1) C. rugosa: 32; MIC (μmol L^-1) C. glabrata: 4; MIC (μmol L^-1) C. krusei: 8 | (c) peptide 17: λexc.: 530 nm; λem.: 625 nm | (d) peptide 17: MIC (μmol L^-1) C. inconspicua: 8; MIC (μmol L^-1) C. arius: 64; MIC (μmol L^-1) C. albicans: 16; MIC (μmol L^-1) C. rugosa: 64; MIC (μmol L^-1) C. glabrata: 32; MIC (μmol L^-1) C. krusei: 8; MIC (μmol L^-1) E. Coli: > 200 DOUBTS OF THE COPYIST ABOUT THIS PICTURE: Panel a, QY 0.08% / 14.9%: the picture prints no substance label beside the OFF/ON photographs, so the label is left empty / Panel d: the table itself prints no substance label; it is assigned to 'peptide 17', printed directly above it in panel c / Panel c, λexc. 530 nm and λem. […]

C. albicans = format: cell-based, Candida albicans; conditions: 48 h
Experimental: as §1

C. rugosa = format: cell-based, Candida rugosa; conditions: 48 h
Experimental: as §1

C. inconspicua = format: cell-based, Candida inconspicua; conditions: 48 h
Experimental: as §1

C. krusei = format: cell-based, Candida krusei; conditions: 48 h
Experimental: as §1

[1] = format: in vitro ADME, human; conditions: diluted urine (urine:water 1:6)
Description: To the best of our knowledge, compound 11 represents the first example of a Phe‐based BODIPY amino acid for SPPS with strong emission in the red region of the visible spectrum. Prior to the incorporation of Phe‐(pMP)BODIPY amino acid 11 into peptides that could detect Candida fungal cells, we prepared a small collection of Phe‐containing antimicrobial peptides as fungal‐targeting scaffolds that could later accommodate BODIPY‐based aromatic FlAAs (Figure 4b). We selected peptide analogues derived from the natural occurring temporin L (Rana temporaria, peptide 12),[31] jelleine‐I (Apis mellifera, peptide 13)[32] and Aurein1.2 (Litoria aurea or Litoria raniformis, peptide 15).[33] […] We next analysed the biological profile of peptide 17 in fungal cells and its selectivity over bacteria. […] Furthermore, we evaluated the photo‐ and chemical stability of the peptide 17 in human urine upon continuous light irradiation. In these assays, we ran both fluorescence and HPLC analysis to confirm that the peptide 17 was fully stable for the clinical evaluation of urine samples using fluorescence‐based assays (Figure 4e and Figure S13).
[…] Environmental sensitivity was measured by comparing the fl uore sce nc e emission in Me OH vs gl yc e rol (c om pounds 4-7) a nd i n pre se nc e of l i posom e suspe nsi ons i n PB Sor PBS a l one (c om pound 17). […]

Row | Molecule | MIC C. glabrata (C. glabrata) [µM] | MIC C. albicans (C. albicans) [µM] | MIC C. rugosa (C. rugosa) [µM] | MIC C. inconspic. (C. inconspicua) [µM] | MIC C. krusei (C. krusei) [µM] | Photostability in human urine upon continuous light irradiation ([1]; 30 µM, 384-well plates, 37 °C, fluorescence emission 644 nm, λexc 530 nm, mean of three independent experiments n=3) | Chemical stability (integrity) in human urine ([1]; 100 µM, 37 °C, 0, 1 and 10 h, HPLC-MS, absorbance 570 nm)
1 | H-FVQWFSKFLGKIL-NH2 [peptide 12, H-Phe-Val-Gln-Trp-Phe-Ser-Lys-Phe-Leu-Gly-Lys-Ile-Leu-NH2] | 30 | 15 | 15 | 60 | 30 |  | 
2 | WFKIIKK-NH2 [peptide 15] | 16 | 16 | > 60 | 4 | 8 |  | 
3 | CC[C@H](C)[C@H](NC(=O)[C@H](CO)NC(=O)[C@@H](NC(=O)[C@H](CCCCN)NC(=O)[C@H](Cc1ccc(C2=C3C=CC(c4ccc(OC)cc4)=[N+]3[B-](F)(F)n3c2ccc3-c2ccc(OC)cc2)cc1)NC(=O)[C@@H]1CCCN1)[C@@H](C)CC)C(=O)N[C@@H](Cc1c[nH]cn1)C(=O)N[C@@H](CC(C)C)C(N)=O [peptide 17, H-Pro-Phe(pMP-BODIPY)-Lys-Ile-Ser-Ile-His-Leu-NH2] (H-P[X1]KISIHL-NH2) |  |  |  |  |  | fully stable | fully stable
4 | CC[C@H](C)[C@@H]1NC(=O)[C@H](CO)NC(=O)[C@H]([C@@H](C)CC)NC(=O)[C@H](CCCCN)NC(=O)[C@H](Cc2ccccc2)NC(=O)[C@@H]2CCCN2C(=O)[C@H](CC(C)C)NC(=O)[C@H](Cc2c[nH]cn2)NC1=O [peptide 14] (cyclo(FKISIHLP)) | > 60 | > 60 | > 60 | > 60 | > 60 |  | 
5 | CC[C@H](C)[C@@H]1NC(=O)[C@H](CCCCN)NC(=O)[C@H](Cc2ccccc2)NC(=O)[C@H](Cc2c[nH]c3ccccc23)NC(=O)[C@H](CCCCN)NC(=O)[C@H](CCCCN)NC(=O)[C@H]([C@@H](C)CC)NC1=O [compound 16] (cyclo(FKIIKKW)) | 4 (≈ 3.78 µg/mL) | 4 (≈ 3.78 µg/mL) | 32 (≈ 30.2 µg/mL) | 2 (≈ 1.89 µg/mL) | 8 (≈ 7.55 µg/mL) |  | 
